In brackets after ≈: the same amount, converted by molar mass. Like-named read-outs stand apart in the source and are kept apart here. Marks after values point to notes of the source that are not given here.
Columns and labels:
[1] = test system: S. aureus ATCC 25923; assay type: cell-based, Staphylococcus aureus; conditions: for MIC antibiotic alone: S. aureus ATCC 25923, checkerboard, ~10^4 CFU/mL
Description: (§1) Vancomycin, rifampicin, kanamycin, gentamicin, ampicillin, ciprofloxacin and tetracycline (Sigma-Aldrich) were provided as standard powders by the manufacturers.

[2] = test system: Escherichia coli
Procedure: (§2) The minimal inhibitory concentrations (MIC) were determined according to the Clinical and Laboratory Standards Institute (CLSI) conditions guidelines detailed in Table 7. Assays were performed in triplicate.
(§3) Preparation of Inocula. Five to 10 well-isolated colonies were picked and resuspended in 3 ml sterile saline. The inoculum was re-suspended by vigorous shaking on a vortex mixer for 15 s. Turbidity was adjusted to McFarland standard 0.5 ([…]). The inoculum was further diluted in the appropriate media (Table 7) to give a final inoculum in each well of ˜2-8×10^5 CFU/ml.
(§4) Addition of Test Article. Stock solutions of Odilomycin A or comparator were diluted in the appropriate media to give a maximum starting concentration of 50 μg/mL in the assay. 50 μL of medium was dispensed into each well in columns two to 12 of a 96 well plate. 100 μL of the appropriate test compound solution (100 μg/mL) was dispensed into each well in column one. In the case of M. catarrhalis, M. haemolytica and P. multocida these values were doubled (a final assay volume of 200 μL was used). […] Columns 11 and 12 served as positive (no drug or test article, inoculum added), and negative (no drug, test article, or inoculum added) growth controls respectively.
(§5) Addition of Bacterial Strains. 50 μL of each inoculum suspension was added to the appropriate wells, resulting in a final volume of 100 μL consisting of 50 μL diluted compound or diluents, and 50 μL of inoculum or broth alone.

[3] = test system: Pseudomonas aeruginosa; conditions: P. aeruginosa ATCC 27853
Procedure: as §2, §3, §4, §5

[4] = test system: Klebsiella oxytoca; conditions: K. oxytoca clinical isolate NEB9
Procedure: as §2, §3, §4, §5

[5] = test system: Klebsiella pneumoniae
Procedure: as §2, §3, §4, §5

[6] = test system: Enterobacter cloacae; conditions: E. cloacae clinical isolate 11370
Procedure: as §2, §3, §4, §5

[7] = test system: P. aeruginosa; assay: Resistance profile of multiresistant clinical isolates; assay type: cell-based, Pseudomonas aeruginosa; design: key: R: resistant; S: sensitive; I: intermediate
[8] = test system: S. aureus; assay: as above; assay type: cell-based, Staphylococcus aureus; design: key: R: resistant; S: sensitive; I: intermediate
[9] = test system: K. pneumoniae ATCC 43816; assay type: cell-based, Klebsiella pneumoniae; conditions: for MIC antibiotic alone: K. pneumoniae ATCC 43816, checkerboard, ~10^4 CFU/mL; for Combinations Odilomycin/antibiotic: Odilomycin concentration: Odilomycin A part of the inhibitory combination with the labelled antibiotic
Description: as §1

[10] = test system: Staphylococcus aureus; assay: microbe, parasite or virus in culture; conditions: Staphylococcus aureus
Procedure: as §2, §3, §4, §5

[11] = test system: P. aeruginosa ATCC 27853; assay: Acute lethal infection in mice; assay type: in vivo, BALB/c mice; conditions: P. aeruginosa infection; Tobramycin […] IP
Procedure: Female BALB/c mice ordered from Harlan Laboratories (Indianapolis, Ind.) weighing 19-21 g were used in experiments of acute lethal infection. Mice were fully immunocompetent. Infection was induced by inoculating intraperitoneally in mice a bacterial suspension of P. aeruginosa ATCC 27853. The bacterial challenges (8.6 log10 CFU/mouse) were given suspended in 0.1 mL sterile saline. Treatments were administered once 1 hour after challenge via IV injection (Tobramycin was administered via IP injection immediately after challenge) (Table 13). Mortality was tracked out to 2 days post challenge. Animals that remained surviving at the end of the study were humanely euthanized.

[12] = test system: S. aureus Smith ATCC 13709; assay: Acute lethal infection in mice; assay type: in vivo, ICR mice
Procedure: Female ICR mice ordered from Harlan Laboratories (Indianapolis, Ind.) weighing 19-21 g were used in experiments of acute lethal infection. Mice were fully immunocompetent. Infection was induced by inoculating intraperitoneally in mice a bacterial suspension of S. aureus Smith ATCC 13709. The bacterial challenges (ca 5 log10 CFU/mouse) were given suspended in 0.5 mL of 20% hog mucin. […] Mortality was tracked out to 5 days post challenge. Animals that remained surviving at the end of the study were humanely euthanized.

[13] = P. aeruginosa multiresistant clinical isolate 5618
[14] = P. aeruginosa multiresistant clinical isolate 35170
[15] = P. aeruginosa multiresistant clinical isolate 42162
[16] = P. aeruginosa multiresistant clinical isolate 401681
[17] = P. aeruginosa multiresistant clinical isolate 512232
[18] = S. aureus multiresistant clinical isolate 16666
[19] = S. aureus multiresistant clinical isolate 20364
[20] = S. aureus multiresistant clinical isolate 20681
[21] = S. aureus multiresistant clinical isolate 21840
[22] = S. aureus multiresistant clinical isolate 23305
[23] = mice, S. aureus 5 log10 CFU/mouse IP, Linezolid 12.5 mg/kg PO at 0 hr, n=6

Compound | MIC antibiotic alone [1] | Susceptibility of isolate to antibacterial (R/S/I) [7, 13] | Susceptibility of isolate to antibacterial (R/S/I) [7, 14] | Susceptibility of isolate to antibacterial (R/S/I) [7, 15] | Susceptibility of isolate to antibacterial (R/S/I) [7, 16] | Susceptibility of isolate to antibacterial (R/S/I) [7, 17] | Susceptibility of isolate to antibacterial (R/S/I) [8, 18] | Susceptibility of isolate to antibacterial (R/S/I) [8, 19] | Susceptibility of isolate to antibacterial (R/S/I) [8, 20] | Susceptibility of isolate to antibacterial (R/S/I) [8, 21] | Susceptibility of isolate to antibacterial (R/S/I) [8, 22] | further results
CC1(C)S[C@@H]2[C@H](NC(=O)[C@H](N)c3ccccc3)C(=O)N2[C@H]1C(=O)O [Ampicillin] | 0.15 µg/mL | – | – | – | – | – | – | – | – | – | – | –
O=C(O)c1cn(C2CC2)c2cc(N3CCNCC3)c(F)cc2c1=O [Ciprofloxacin, ciprofloxacin] | 0.31 µg/mL | – | – | – | – | – | – | – | – | – | – | –
polymyxin [reference compound] | – | – | – | – | – | – | – | – | – | – | – | MIC ([2]; E. coli ATCC 25922): 0.39^c μg/mL; MIC ([2]; E. coli CTX-M14 clinical isolate AEC7): 0.39^c μg/mL; MIC ([2]; E. coli CTX-M15 clinical isolate MEC23): 0.39^c μg/mL; MIC ([2]; E. coli TEM clinical isolate MEC12): 0.39^c μg/mL; MIC [3]: 0.39^c μg/mL; MIC [4]: 0.39^c μg/mL; MIC ([5]; K. pneumoniae ATCC 43816): 0.39^c μg/mL; MIC ([5]; K. pneumoniae KPC clinical isolate 2475): 0.78^c μg/mL; MIC [6]: 0.78^c μg/mL
Gentamicin | 0.078 µg/mL | R | R | R | R | R | R | S | S | S | R | Combinations Odilomycin/antibiotic: Odilomycin concentration ([1]; S. aureus ATCC 25923, Odilomycin A part of the inhibitory combination with the labelled antibiotic): 0.19 µg/mL; Combinations Odilomycin/antibiotic: antibiotic concentration ([1]; S. aureus ATCC 25923, antibiotic part of the inhibitory combination with Odilomycin A): 0.039 µg/mL; Synergy with Odilomycin A ([1]; S. aureus ATCC 25923, labelled antibiotic combined with Odilomycin A): synergistic interaction; MIC antibiotic alone [9]: 0.39 µg/mL; Combinations Odilomycin/antibiotic: Odilomycin concentration ([9]; K. pneumoniae ATCC 43816): 3.12 µg/mL; Synergy with Odilomycin A ([9]; K. pneumoniae ATCC 43816, labelled antibiotic combined with Odilomycin A): synergistic interaction
CC[C@H]1OC(=O)[C@H](C)[C@@H](O[C@H]2C[C@@](C)(OC)[C@@H](O)[C@H](C)O2)[C@H](C)[C@@H](O[C@@H]2O[C@H](C)C[C@H](N(C)C)[C@H]2O)[C@](C)(O)C[C@@H](C)C(=O)[C@H](C)[C@@H](O)[C@]1(C)O [Erythromycin] | – | R | R | R | R | R | R | R | S | S | R | –
CCC[C@@H]1C[C@@H](C(=O)N[C@@H]([C@H]2O[C@H](SC)[C@H](O)[C@@H](O)[C@H]2O)[C@H](C)Cl)N(C)C1 [Clindamycin] | – | R | R | R | R | R | R | R | S | S | R | –
CO[C@@]1(NC(=O)Cc2cccs2)C(=O)N2C(C(=O)O)=C(COC(N)=O)CS[C@@H]21 [Cefoxitin] | – | – | – | – | – | – | R | R | R | S | I | –
CN[C@H](CC(C)C)C(=O)N[C@H]1C(=O)N[C@@H](CC(N)=O)C(=O)N[C@H]2C(=O)N[C@H]3C(=O)N[C@H](C(=O)N[C@H](C(=O)O)c4cc(O)cc(O)c4-c4cc3ccc4O)[C@H](O)c3ccc(c(Cl)c3)Oc3cc2cc(c3O[C@@H]2O[C@H](CO)[C@@H](O)[C@H](O)[C@H]2O[C@H]2C[C@](C)(N)[C@H](O)[C@H](C)O2)Oc2ccc(cc2Cl)[C@H]1O [Vancomycin, vancomycin] | 0.78 µg/mL | – | – | – | – | – | S | S | S | S | S | MIC ([10]; ATCC13709): 0.78 µg/mL (≈ 0.538 µM); MIC ([10]; ATCC25923): 0.78 µg/mL (≈ 0.538 µM); MIC ([10]; ATCCBAA1556 / USA300): 0.78 µg/mL (≈ 0.538 µM)
NC[C@H]1O[C@H](O[C@H]2[C@H](O)[C@@H](O[C@H]3O[C@H](CO)[C@@H](O)[C@H](N)[C@H]3O)[C@H](N)C[C@@H]2N)[C@H](O)[C@@H](O)[C@@H]1O [Kanamycin] | 0.62 µg/mL | – | – | – | – | – | – | – | – | – | – | MIC antibiotic alone [9]: 1.56 µg/mL; Combinations Odilomycin/antibiotic: Odilomycin concentration ([9]; K. pneumoniae ATCC 43816): 6.25 µg/mL; Combinations Odilomycin/antibiotic: antibiotic concentration ([9]; K. pneumoniae ATCC 43816, antibiotic part of the inhibitory combination with Odilomycin A): 0.39 µg/mL
NC[C@H]1O[C@H](O[C@H]2[C@H](O)[C@@H](O[C@H]3O[C@H](CO)[C@@H](O)[C@H](N)[C@H]3O)[C@H](N)C[C@@H]2N)[C@H](N)C[C@@H]1O [Tobramycin, reference compound] | – | – | – | – | – | – | – | – | – | – | – | Survival of all treated mice [11]: survived up to 5 days after infection
CO[C@H]1/C=C/O[C@@]2(C)Oc3c(C)c(O)c4c(O)c(c(/C=N/N5CCN(C)CC5)c(O)c4c3C2=O)NC(=O)/C(C)=C\C=C\[C@H](C)[C@H](O)[C@@H](C)[C@@H](O)[C@@H](C)[C@H](OC(C)=O)[C@@H]1C [Rifampicin] | 0.012 µg/mL | – | – | – | – | – | – | – | – | – | – | –
C[C@@H](O)[C@H]1C(=O)N2C(C(=O)O)=C(SCCN=CN)C[C@H]12 [Imipenem] | – | R | R | R | S | R | – | – | – | – | – | –
C[C@H]1[C@H](NC(=O)/C(=N\OC(C)(C)C(=O)O)c2csc(N)n2)C(=O)N1S(=O)(=O)O [Aztreonam] | – | S | R | I | I | R | – | – | – | – | – | –
CN(C)[C@@H]1C(O)=C(C(N)=O)C(=O)[C@@]2(O)C(O)=C3C(=O)c4c(O)cccc4[C@@](C)(O)[C@H]3C[C@@H]12 [Tetracycline] | 0.78 µg/mL | – | – | – | – | – | – | – | – | – | – | –
CC(=O)NC[C@H]1CN(c2ccc(N3CCOCC3)c(F)c2)C(=O)O1 [Linezolid, reference compound] | – | – | – | – | – | – | S | S | S | S | S | Survival of all treated mice ([12]; S. aureus infection, linezolid 12.5 mg/kg PO): survived up to 5 days after infection; Animal deaths Day 0 [12, 23]: 0; Animal deaths Day 1 [12, 23]: 0; Animal deaths Day 2 [12, 23]: 0; Animal deaths Day 3 [12, 23]: 0; Animal deaths Day 4 [12, 23]: 0; Animal deaths Day 5 [12, 23]: 0

From US9260481B2, “Peptide derivatives as antibiotics” (priority 2011, dated 2016)
